pIC50, pKd: −log10 of the molar value.
Columns and labels:
Human C5 [1] = biological target: T1, Human C5 (Homo sapiens, UniProt P01031); assay: Red blood cell (RBC) hemolysis assay, luminescent (Example 13, Table 22); assay type: cell-based; details: sheep EA cells, […] C5-depleted human serum, 0.5 nM human C5, 1 hour 37° C., luminescence; also: 1.5% C5-depleted human serum
T1 construct: purchased Complement Technology
Text: (§1) Compound CU0136 is a racemic mixture of Compound CU0186 and CU0187. Numbers in parenthesis following compound numbers indicate alternate enantiomers (as distinguished by retention time during chromatographical separation).

[2] = biological target: human C5 complement protein (Homo sapiens, UniProt P01031); assay: Surface plasmon resonance (SPR), immobilized human C5, 37° C. (Example 12, Table 21); assay type: binding; details: where a range of compound concentrations were analyzed, the lowest value obtained
Text: as §1

Human C5 [3] = biological target: T1, Human C5; assay: Surface plasmon resonance (SPR), compounds on immobilized human C5 (Example 2, Table 5); assay type: binding; details: lowest value where a range of compound concentrations were analyzed
Procedure: Surface plasmon resonance (SPR) technology was used to evaluate affinity, specificity, and kinetics of interactions between compounds and complement protein C5 in real time without the need for labeling.
SensiQ FE SPR system (SensiQ Technologies, Oklahoma City, Okla.) was used to provide sensitive and accurate detection of binding of small molecules to the very large C5 protein (MW=195,000 Da). The chip was prepared by preconditioning the sensor according to the protocol of the SensiQ FE using 10 mM HCl, 50 mM NAOH and 0.1% SDS. The sensor chip was activated by using a mixture of fresh EDAC (1-ethyl-3-(-3-dimethylaminopropyl) carbodiimide) (Sigma Co., St. Louis, Mo.) and NHS (N-hydroxy succinimide) (Sigma Co., St. Louis, Mo.). Human C5 was surface immobilized to a Pioneer Biosensor chip via random amine coupling (>12,000 RU) which makes use of the N-terminus and ε-amino groups of lysine residues of the protein ligand. Immobilization was done by injecting 30-40 μg/ml C5 in 10 mM NaAc pH 4.5 onto designated channels at a rate of 10 μL/minute for 12 minutes, targeting RL>12000 RU for small molecules.
Compounds were diluted in DMSO in a format of 100-fold final concentration and 3-fold serial dilution (5 or 6 dilutions). The 100-fold compounds were transferred to one-fold DMSO-free assay buffer in the 96-well test plate. The compound solution was injected at a rate of 60 μL/minute for 30-60 seconds, followed by 60-90 seconds dissociation time, buffer flushing and/or priming. Blank solution (1% DMSO assay buffer) was run for every 6 injections of compounds. Double reference by subtracting both blank channel and reference channel was applied for data processing. Titration of C5 binding compounds to the C5-immobilized biosensor chip surface led to interactions between C5 and potential binders, and the resulting changes of surface refractive index were sensitively measured by the system.
SPR data were analyzed with the managing software provided by SensiQ and equilibrium dissociation constant (KD) values were determined for each compound. Where a range of compound concentrations were analyzed, the lowest value obtained is presented.

purified human C5 = purified human C5 (Homo sapiens, UniProt P01031); assay: Red blood cell hemolysis assay, optical, absorbance 412 nm (Example 3, Table 6); assay type: cell-based; details: antibody-sensitized sheep erythrocytes, 1.5% human C5 depleted sera, 0.5 nM human C5; average where replicates
purified human C5, sequence (P01031 19-1676): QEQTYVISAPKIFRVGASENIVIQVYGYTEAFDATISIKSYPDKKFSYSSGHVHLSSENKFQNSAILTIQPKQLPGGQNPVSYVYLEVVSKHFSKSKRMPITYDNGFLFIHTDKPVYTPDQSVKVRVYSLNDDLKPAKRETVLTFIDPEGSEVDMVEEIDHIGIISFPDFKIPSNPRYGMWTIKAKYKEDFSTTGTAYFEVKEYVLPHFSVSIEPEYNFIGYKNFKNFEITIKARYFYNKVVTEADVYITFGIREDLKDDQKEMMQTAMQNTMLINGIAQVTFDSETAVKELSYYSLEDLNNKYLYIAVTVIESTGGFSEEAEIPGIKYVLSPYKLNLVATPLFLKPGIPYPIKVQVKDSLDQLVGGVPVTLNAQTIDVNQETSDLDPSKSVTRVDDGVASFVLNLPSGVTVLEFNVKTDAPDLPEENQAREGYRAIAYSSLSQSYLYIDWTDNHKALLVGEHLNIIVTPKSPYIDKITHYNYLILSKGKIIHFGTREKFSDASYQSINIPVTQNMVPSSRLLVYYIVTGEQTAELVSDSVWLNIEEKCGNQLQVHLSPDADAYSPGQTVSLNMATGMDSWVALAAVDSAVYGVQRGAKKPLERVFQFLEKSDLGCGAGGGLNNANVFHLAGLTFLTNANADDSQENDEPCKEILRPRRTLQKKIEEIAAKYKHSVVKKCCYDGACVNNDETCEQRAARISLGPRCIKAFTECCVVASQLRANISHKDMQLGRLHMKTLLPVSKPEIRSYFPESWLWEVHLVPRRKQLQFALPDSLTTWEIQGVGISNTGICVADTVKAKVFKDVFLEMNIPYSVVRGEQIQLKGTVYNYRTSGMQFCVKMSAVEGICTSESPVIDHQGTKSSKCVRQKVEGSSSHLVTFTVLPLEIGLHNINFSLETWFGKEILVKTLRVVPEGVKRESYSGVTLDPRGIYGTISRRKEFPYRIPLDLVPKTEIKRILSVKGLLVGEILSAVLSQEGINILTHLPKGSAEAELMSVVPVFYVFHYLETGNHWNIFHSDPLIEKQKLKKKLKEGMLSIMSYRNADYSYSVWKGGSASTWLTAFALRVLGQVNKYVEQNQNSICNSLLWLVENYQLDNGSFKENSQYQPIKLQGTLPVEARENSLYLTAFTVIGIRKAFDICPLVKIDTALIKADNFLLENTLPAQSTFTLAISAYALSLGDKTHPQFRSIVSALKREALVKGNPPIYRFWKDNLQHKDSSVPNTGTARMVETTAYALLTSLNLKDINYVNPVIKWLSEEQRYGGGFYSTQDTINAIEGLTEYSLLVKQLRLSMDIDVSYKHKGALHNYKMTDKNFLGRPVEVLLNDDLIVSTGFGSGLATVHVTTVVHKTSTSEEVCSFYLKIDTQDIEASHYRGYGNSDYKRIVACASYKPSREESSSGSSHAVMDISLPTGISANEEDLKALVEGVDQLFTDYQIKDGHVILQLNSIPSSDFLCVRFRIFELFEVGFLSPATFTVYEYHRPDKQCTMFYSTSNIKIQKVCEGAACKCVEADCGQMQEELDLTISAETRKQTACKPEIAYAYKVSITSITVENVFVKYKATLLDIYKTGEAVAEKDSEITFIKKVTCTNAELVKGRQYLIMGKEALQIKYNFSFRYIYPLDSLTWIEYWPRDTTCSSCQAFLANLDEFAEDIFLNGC
Procedure: Experiments were carried out using a red blood cell (RBC) hemolysis assay to assess compound inhibition of RBC lysis. […] The assay was carried out using 1.5% human C5 depleted sera and 0.5 nM purified human C5.
GVB++ buffer (Complement Technology, Tyler, Tex.) was heated at 37° C. for a minimum of 20 minutes. The human C5 depleted sera and purified human C5 were rapidly thawed at 37° C. and then stored on ice or wet ice, respectively. The compound stock (10 mM, DMSO) was serially diluted in 100% DMSO to obtain ten 6-fold dilutions before addition of GVB++. Sera dilution was prepared by adding 5 mL of GVB++ to a 15 mL conical tube, removing 600 μL of the GVB++ and adding 600 μL of the 100% sera. The tube was mixed by inverting three times. A volume of 25 μL of the diluted sera was added to each well so that the final concentration of sera in the well was 1.5%. C5 dilution was prepared by adding 5 mL of GVB++ to a 15 mL conical tube, removing 4 μL of the GVB++ and adding 4 μL of the C5 stock. The tube was mixed by inverting three times. A volume of 25 μL was added to each well so that the final amount of C5 was 0.5 nM in each well. The antibody-sensitized sheep erythrocytes (EAs) were centrifuged at 1,000× gravity at 22° C. for 3 minutes. The supernatant was pipetted off without disrupting the pellet. The pellet was then resuspended in GVB++ with the same volume removed. Resuspended EAs were mixed by gently inverting the tube.
Five controls were run on each plate: (1) EAs only=100 μL EAs+50 μL GVB++ with 4% DMSO+50 μL GVB++; (2) EA+Sera=100 μL EAs+50 μL GVB++ with 4% DMSO+25 μL Sera dilution+25 μL GVB++; (3) EA+C5=100 μL EAs+50 μL GVB++ with 4% DMSO+25 μL C5 dilution+25 μL GVB++; (4) EA+Sera+C5=100 μL EAs+50 μL GVB++ with 4% DMSO+25 μL Sera dilution+25 μL C5; (5) GVB++ Only=200 μL GVB++. Other wells included: GVB++ with 4% DMSO=20 μL DMSO+480 μL GVB++. All samples were analyzed in duplicate. The compound dose response curve was generated using samples prepared with 100 μL EA+50 μL compound dilution+25 μL C5 dilution+25 μL sera dilution.
Test plates were prepared by adding 100 μL of EAs, 50 μL of compound dilution, 25 μL of sera dilution, and 25 μL of C5 dilution to individual wells of a 96-well tissue culture-treated clear microtitre plate (USA Scientific, Ocala, Fla.) and resuspending by pipetting up and down three times. The samples were incubated at 37° C. for one hour. At the completion of the incubation, the plates were centrifuged at 1,000× gravity for 3 minutes. 100 μl of supernatant were transferred to a new plate and the absorbance was read at 412 nm. Data was fit with a log-logit formula producing a dose-response curve and IC50.
“IC50” refers to the half maximal inhibitory concentration, where the value is the concentration of the inhibitor needed to reduce red blood cell hemolysis by half. Where replicate analysis was conducted, average IC50 values are provided along with standard deviation (SD) values.

T1 sequence (P01031 19-1676): as above
human C5 complement protein, sequence (P01031 19-1676): as above

Structure (SMILES)	pKd [2]	pKd (Human C5 [3])	pIC50 (Human C5 [1])	pIC50 (purified human C5)
CCCCCOc1cc(N2CCCN(Cc3ccnc4c3ccn4C3CCN(C)C3=O)C2=O)ccc1OC (single isomer, unassigned) [CU0039(1)]	7.55		7.52	
CCCCCOc1cc(N2CCCN(Cc3ccnc4c3ccn4C3CCN(C)C3=O)C2=O)ccc1OC (single isomer, unassigned) [CU0039(2)]	8.19		7.52	
CCCCCOc1cc(N2CCN(Cc3ccccc3OC)C2=O)ccc1OC [CU0001]	7.53		7.45	
CCCCCOc1cc(N2CCN(Cc3cc(F)ccc3OC)C2=O)ccc1OC [CU0002]	7.08		7.38	
CCCCCOc1cc(N2CCCN(Cc3cc(F)ccc3OC)C2=O)ccc1OC [CU0003]	7.85		7.55	
CCCCCOc1cc(N2CCN(Cc3ccc(C(C)(C)O)cc3OC)C2=O)ccc1OC [CU0004]	7.98		7.92	
CCCCCOc1cc(N2CCCN(Cc3ccc(CCC(=O)N(CC)CC)cc3OC)C2=O)ccc1OC [CU0008]	8.19		7.20	
CCCCCOc1cc(N2CCCN(Cc3ccccc3Cl)C2=O)ccc1OC [CU0010]	7.13		7.46	
CCCCCOc1cc(N2CCN(Cc3cccc(F)c3Cl)C2=O)ccc1OC [CU0011]	6.09		6.05	
CCCCCOc1cc(N2CCCN(Cc3cccc(F)c3Cl)C2=O)ccc1OC [CU0012]	6.49		6.89	
CCCCCOc1cc(N2CCN(Cc3cc(F)ccc3Cl)C2=O)ccc1OC [CU0013]	6.34		6.22	
CCCCCOc1cc(N2CCCN(Cc3cc(F)ccc3Cl)C2=O)ccc1OC [CU0014]	6.76		7.11	
CCCCCOc1cc(N2CCN(Cc3cccnc3OC)C2=O)ccc1OC [CU0017]	6.73		6.97	
CCCCCOc1cc(N2CCCN(Cc3cccnc3OC)C2=O)ccc1OC [CU0018]	7.56		7.39	
CCCCCOc1cc(N2CCCN(Cc3cccc4c3ccn4C3CCN(C)C3=O)C2=O)ccc1OC (centres unmarked) [CU0020]	8.52		7.76	
CCCCCOc1cc(N2CCCN(Cc3cccc4c3ccn4CC3(O)CCNCC3)C2=O)ccc1OC [CU0021]	8.82		7.84	

Structure (SMILES)	pKd [2]	pKd (Human C5 [3])	pIC50 (Human C5 [1])	pIC50 (purified human C5)
CCCCCOc1cc(N2CCCN(Cc3cccc4c3ccn4CC3(O)CCN(C)CC3)C2=O)ccc1OC [CU0022]	8.54		7.77	
CCCCCOc1cc(N2CCCN(Cc3cccc4c3ccn4Cc3nncn3C)C2=O)ccc1OC [CU0024]	8.30		7.89	
CCCCCOc1cc(N2CCCN(Cc3cccc4c3ccn4CC(=O)N(C)C)C2=O)ccc1OC [CU0025]	8.30		7.87	
COc1ccc(N2CCCN(Cc3cccc4c3ccn4CC(=O)N(C)C)C2=O)cc1OCCCC(C)(F)F [CU0027]	7.85		7.65	
CCCCCOc1cc(N2CCCN(Cc3cccc4c3ccn4CC(=O)N3CCNC(=O)C3)C2=O)ccc1OC [CU0028]	8.30		8.05	
CCCCCOc1cc(N2CCCN(Cc3cccc4c3ccn4CC(=O)N3CCOCC3)C2=O)ccc1OC [CU0029]	8.68		7.82	
CCCCCOc1cc(N2CCCN(Cc3cccc4c3ccn4CC(=O)N3CCOC(C)(C)C3)C2=O)ccc1OC [CU0030]	8.74		7.57	
CCCCCOc1cc(N2CCCN(Cc3cccc4c3ccn4CC(=O)N3CCOC(COC)C3)C2=O)ccc1OC (centres unmarked) [CU0031]	8.22		7.80	
CCCCCOc1cc(N2CCCN(Cc3ccnc4[nH]ccc34)C2=O)ccc1OC [CU0032]	7.32		7.29	
CCCCCOc1cc(N2CCN(Cc3ccnc4c3ccn4CC(=O)N(C)C)C2=O)ccc1OC [CU0033]	7.21		6.87	
CCCCCOc1cc(N2CCCN(Cc3ccnc4c3ccn4CC(=O)N(C)C)C2=O)ccc1OC [CU0035]	7.47		7.51	
CCCCCOc1cc(N2CCCN(Cc3ccnc4c3ccn4CC(=O)N(C)C)C2=O)ccc1C1CC1 [CU0036]	7.60		6.92	
CCCCCOc1cc(N2CCCN([C@@H](C)c3ccnc4c3ccn4CC(=O)N(C)C)C2=O)ccc1OC [CU0037]	7.81		7.33	
CCCCCOc1cc(N2CCCN(Cc3ccnc4c3ccn4CC(=O)N3CC[C@@H](OC)C3)C2=O)ccc1OC [CU0041]	7.77		7.26	
CCCCCOc1cc(N2CCN(Cc3ccnc4c3ccn4CC(=O)N3CCOCC3)C2=O)ccc1OC [CU0042]	6.97		7.20	
CCCCCOc1cc(N2CCCN(Cc3ccc(CC(=O)N4CCNC(=O)C4)cc3OC)C2=O)ccc1OC [CU0101]	8.62			

Continued, in another order:

pKd [2]	pKd (Human C5 [3])	Structure (SMILES)	pIC50 (Human C5 [1])	pIC50 (purified human C5)
	5.28	COc1ccc(NC(=O)N(CCO)c2ccccc2)cc1OCCCC(C)C [SM0057]		5.39
	6.30	COc1ccc(NC(=O)NCc2ccccc2F)cc1OCCCC(C)C [SM0058]		5.39
	6.95	COc1ccc(NC(=O)NCc2cscn2)cc1OCCCC(C)C [SM0059]		5.36
	5.41	C=C(NC(=O)Nc1ccc(OC)c(OCCCC(C)C)c1)c1ccccc1 [SM0061]		5.30
	5.70	COc1ccc(NC(=O)N[C@@H](COC(C)=O)c2ccccc2)cc1OCCCC(C)C [SM0062]		5.25
	5.20	COc1ccc(NC(=O)NCc2cccc(CN(C)C)c2)cc1OCCCC(C)C [SM0063]		5.21
	5.18	COc1ccc(NC(=O)NC(CCO)c2ccccc2)cc1OCCCC(C)C (centres unmarked) [SM0064]		5.19
	5.80	COc1ccc(NC(=O)NCc2ccc3nccn3c2)cc1OCCCC(C)C [SM0065]		5.18
	6.54	COc1ccc(NC(=O)N[C@@H]2c3ccccc3C[C@@H]2O)cc1OCCCC(C)C [SM0066]		5.16
	6.76	COc1ccc(NC(=O)NCc2ccccc2C#N)cc1OCCCC(C)C [SM0067]		5.13
	5.59	COc1ccc(NC(=O)N[C@@H](COC(N)=O)c2ccccc2)cc1OCCCC(C)C [SM0068, (R)-2-(3-(4-methoxy-3-((4-methylpentyl)oxyureido)-2-phenylethyl carbamate]		5.13
	6.85	COc1ccc(NC(=O)Nc2ccccc2O)cc1OCCCC(C)C [SM0069]		5.11
	5.32	CC(C)CCCOc1cccc(NC(=O)N[C@@H](CO)c2ccccc2)c1 [SM0070, 1-[(1R)-2-hydroxy-1-phenyl-ethyl]-3-(3-isohexyloxyphenyl)urea]		5.07
	5.68	COc1ccc(NC(=O)N(C)CC(O)c2ccc(O)cc2)cc1OCCCC(C)C (centres unmarked) [SM0071, 1-[2-hydroxy-2-(4-hydroxyphenyl)ethyl]-3-(3-isohexyloxy-4-methoxy-phenyl)-1-methyl-urea]		5.06
	5.09	COc1ccc(NC(=O)N[C@@H](CO)c2ccccc2)cc1OCCC(C)C [SM0072]		5.06
	5.49	COc1ccc(NC(=O)N[C@@H](CO)c2ccccc2)cc1C(F)(F)F [SM0073]		5.03
	5.44	COc1ccc(NC(=O)NCC(O)c2ccc(O)cc2)cc1OCCCC(C)C (centres unmarked) [SM0074]		5.03
	5.89	CC(C)CCCOc1cc(NC(=O)N[C@@H](CO)c2ccccc2)ccc1F [SM0075]		4.94
	5.03	COc1ccc(NC(=O)NCc2cccc(C#N)c2)cc1OCCCC(C)C [SM0076]		4.93
	5.44	COc1ccc(NC(=O)NCC(O)c2ccccn2)cc1OCCCC(C)C (centres unmarked) [SM0078]		4.90
	6.84	COc1ccc(NC(=O)NCc2cnccn2)cc1OCCCC(C)C [SM0080]		4.89
	5.80	COc1ccc(NC(=O)NCC(O)c2ccccc2)cc1OCCCC(C)C (centres unmarked) [SM0081]		4.88
	5.19	COc1ccc(NC(=O)N[C@@H](CO)c2ccccc2)cc1OCCOC(C)C [SM0083]		4.81
	6.51	COCCCOc1cc(NC(=O)N[C@@H](CO)c2ccccc2)ccc1OC [SM0084]		4.79
	5.00	CCCCCc1cccc(NC(=O)N[C@@H](CO)c2ccccc2)c1 [SM0087]		4.78

Source: US20230115176A1 (Ra Pharmaceuticals, Inc., priority 2019, published 2023)
